Data published in PubChem BioAssay AID330 (DTP/NCI, 2004).
Several values for one entry are separate records, joined by “and”; a condition that tells them apart may be missing. Identical values can stand only once. Inconclusive results and toxic doses are left out. The calls were made as follows: active = survival T/C of 150% or more; inactive = T/C below 125% in these data.

Tested on: P388 leukemia ip, CD2F1 mice, survival T/C
Experiment: NCI In Vivo Anticancer Drug Screen. Data for tumor model P388 Leukemia (intraperitoneal) in CD2F1 (CDF1) mice
Settings: endpoint: median survival time, higher = longer survival
Outline: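 Mice carrying the transplanted tumor received test compound or vehicle. Survival was recorded in each group, and the value is the treated-group measurement divided by that of the vehicle-treated control group.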

[1] = dose: 100.0 mg/kg/injection, schedule: Q01DX009 (ip), vehicle: saline with Tween-80
[2] = dose: 200.0 mg/kg/injection, schedule: Q01DX009 (ip), vehicle: saline with Tween-80
[3] = dose: 50.0 mg/kg/injection, schedule: Q01DX005 (ip), vehicle: Klucel (hydroxypropylcellulose) (HPC)

Measured: T/C

COC1=C(NC(C)=O)C(=O)c2nc(-c3nc(C(=O)O)c(C)c(-c4ccc(OC)c(OC)c4O)c3N)ccc2C1=O
inactive: dose: 12.5 mg/kg/injection, schedule: Q01DX009 (ip), vehicle: distilled water + Tween-80 119 % of control | dose: 25.0 mg/kg/injection, schedule: Q01DX009 (ip), vehicle: distilled water + Tween-80 118 % of control | dose: 50.0 mg/kg/injection, schedule: Q01DX009 (ip), vehicle: distilled water + Tween-80 119 % of control | dose: 100.0 mg/kg/injection, schedule: Q01DX009 (ip), vehicle: distilled water + Tween-80 119 % of control

COc1cc(OC)cc(C2OC3=C(Nc4ccc([N+](=O)[O-])cc4N3)C2=O)c1 (configuration not stated)
inactive: dose: 60.0 mg/kg/injection, schedule: Q01DX005 (ip), vehicle: Klucel (hydroxypropylcellulose) (HPC) 90 % of control | dose: 120.0 mg/kg/injection, schedule: Q01DX005 (ip), vehicle: Klucel (hydroxypropylcellulose) (HPC) 90 % of control | dose: 240.0 mg/kg/injection, schedule: Q01DX005 (ip), vehicle: Klucel (hydroxypropylcellulose) (HPC) 90 % of control

Cc1cc(NC(=S)SC(C)C)ccc1Cl
inactive: dose: 50.0 mg/kg/injection, schedule: Q01DX009 (ip), vehicle: saline 99 % of control | dose: 100.0 mg/kg/injection, schedule: Q01DX009 (ip), vehicle: saline 102 % of control | dose: 200.0 mg/kg/injection, schedule: Q01DX009 (ip), vehicle: saline 102 % of control

CC(Cl)C(=O)c1ccc(N)cc1 (configuration not stated)
inactive: dose: 50.0 mg/kg/injection, schedule: Q01DX009 (ip), vehicle: Klucel (hydroxypropylcellulose) (HPC) 99 % of control | dose: 100.0 mg/kg/injection, schedule: Q01DX009 (ip), vehicle: Klucel (hydroxypropylcellulose) (HPC) 99 % of control | dose: 200.0 mg/kg/injection, schedule: Q01DX009 (ip), vehicle: Klucel (hydroxypropylcellulose) (HPC) 99 % of control

COc1cc2c(ccc3cc4cccc[n+]4cc32)c(Br)c1OC
inactive: dose: 12.5 mg/kg/injection, schedule: Q01DX009 (ip), vehicle: saline sonified 104 % of control | dose: 25.0 mg/kg/injection, schedule: Q01DX009 (ip), vehicle: saline sonified 118 % of control | dose: 50.0 mg/kg/injection, schedule: Q01DX009 (ip), vehicle: saline sonified 113 % of control

Cc1ccc(NC(=O)c2ccc([N+](=O)[O-])cc2)c(C)c1
inactive: [1] 100 % of control | [2] 100 % of control | dose: 400.0 mg/kg/injection, schedule: Q01DX009 (ip), vehicle: saline with Tween-80 110 % of control

[Br][Sn]([Br])([CH2]CC[CH2][Sn]([Br])([Br])[c]1ccccc1)[c]1ccccc1
inactive: dose: 12.5 mg/kg/injection, schedule: Q01DX005 (ip), vehicle: Klucel (hydroxypropylcellulose) (HPC) 101 % of control | dose: 25.0 mg/kg/injection, schedule: Q01DX005 (ip), vehicle: Klucel (hydroxypropylcellulose) (HPC) 117 % of control | [3] 115 % of control and 117 % of control

NP(=O)(Oc1c2occc2cc2ccc(=O)oc12)N(CCCl)CCCl (configuration not stated)
inactive: dose: 50.0 mg/kg/injection, schedule: Q01DX005 (ip), vehicle: saline with Tween-80 111 % of control | dose: 100.0 mg/kg/injection, schedule: Q01DX005 (ip), vehicle: saline with Tween-80 99 % of control | dose: 200.0 mg/kg/injection, schedule: Q01DX005 (ip), vehicle: saline with Tween-80 114 % of control

O=C1c2ccccc2C(=O)C1c1cc(Cl)c(O)c(Cl)c1
inactive: dose: 50.0 mg/kg/injection, schedule: Q04DX002 (ip), vehicle: saline 100 % of control | dose: 50.0 mg/kg/injection, schedule: Q04DX002 (ip), vehicle: suspension in saline 99 % of control | dose: 100.0 mg/kg/injection, schedule: Q04DX002 (ip), vehicle: saline 117 % of control and 94 % of control | dose: 100.0 mg/kg/injection, schedule: Q04DX002 (ip), vehicle: suspension in saline 98 % of control | dose: 200.0 mg/kg/injection, schedule: Q04DX002 (ip), vehicle: saline 101 % of control and 117 % of control | dose: 200.0 mg/kg/injection, schedule: Q04DX002 (ip), vehicle: suspension in saline 100 % of control | dose: 400.0 mg/kg/injection, schedule: Q04DX002 (ip), vehicle: saline 96 % of control | dose: 400.0 mg/kg/injection, schedule: Q04DX002 (ip), vehicle: suspension in saline 100 % of control

O=C(Nc1ccc(NC(=O)C(Cl)(Cl)Cl)cc1)C(Cl)(Cl)Cl
inactive: dose: 25.0 mg/kg/injection, schedule: Q01DX009 (ip), vehicle: saline with Tween-80 105 % of control | dose: 50.0 mg/kg/injection, schedule: Q01DX009 (ip), vehicle: saline with Tween-80 91 % of control | [1] 92 % of control | [2] 99 % of control

C/C=C1/CN2CCC34c5ccccc5N5C(=O)C(C6CC78c9ccccc9N9C(=O)C=CC(C%10CC7N6C/C%10=C/C)C98)=CC(C1CC23)C54 (configuration not stated)
inactive: dose: 10.0 mg/kg/injection, schedule: Q01DX009 (ip), vehicle: saline with Tween-80 99 % of control | dose: 20.0 mg/kg/injection, schedule: Q01DX009 (ip), vehicle: saline with Tween-80 104 % of control | dose: 40.0 mg/kg/injection, schedule: Q01DX009 (ip), vehicle: saline with Tween-80 104 % of control | dose: 80.0 mg/kg/injection, schedule: Q01DX009 (ip), vehicle: saline with Tween-80 88 % of control

O=C1c2ccccc2C(=O)N1Cc1ccc(Cl)cc1[N+](=O)[O-]
inactive: [3] 103 % of control | dose: 100.0 mg/kg/injection, schedule: Q01DX005 (ip), vehicle: Klucel (hydroxypropylcellulose) (HPC) 109 % of control | dose: 200.0 mg/kg/injection, schedule: Q01DX005 (ip), vehicle: Klucel (hydroxypropylcellulose) (HPC) 98 % of control

c1ccc2c(c1)OC1(CCSCC1)O2
inactive: dose: 100.0 mg/kg/injection, schedule: Q01DX001 (ip), vehicle: saline with Tween-80 95 % of control | dose: 200.0 mg/kg/injection, schedule: Q01DX001 (ip), vehicle: saline with Tween-80 95 % of control | dose: 400.0 mg/kg/injection, schedule: Q01DX001 (ip), vehicle: saline with Tween-80 100 % of control
